Laboratory results reported in publication doi:10.1101/2024.08.19.608619, “Discovery of potent SARS-CoV-2 nsp3 macrodomain inhibitors uncovers lack of translation to cellular antiviral response” (bioRxiv, 2024).
Read-outs that look alike come from different tables or passages of the source.

What was measured:
[1] = molecular target: T1, SARS-CoV-2 nsp3-mac1 (Severe acute respiratory syndrome coronavirus 2, UniProt P0DTD1); experiment: biochemical; format: biochemical; conditions: SARS-CoV-2 nsp3 macrodomain TR-FRET single point
[2] = molecular target: T1, SARS-CoV-2 nsp3-mac1; experiment: biochemical; set-up: SARS-CoV-2 nsp3 macrodomain TR-FRET single point, per cent inhibition, n=2
[3] = read-out: perc_inhibition_mean, batch_name=ASAP-0000382-001
[4] = read-out: perc_inhibition_mean, batch_name=ASAP-0000383-001
[5] = read-out: perc_inhibition_mean, batch_name=ASAP-0000384-001
[6] = read-out: perc_inhibition_mean, batch_name=ASAP-0000385-001
[7] = read-out: perc_inhibition_mean, batch_name=ASAP-0000386-001
[8] = read-out: perc_inhibition_mean, batch_name=ASAP-0000387-001
[9] = read-out: perc_inhibition_mean, batch_name=ASAP-0000388-001
[10] = read-out: perc_inhibition_mean, batch_name=ASAP-0000389-001
[11] = read-out: perc_inhibition_mean, batch_name=ASAP-0000390-001
[12] = read-out: perc_inhibition_mean, batch_name=ASAP-0000391-001
[13] = read-out: perc_inhibition_mean, batch_name=ASAP-0000392-001
[14] = read-out: perc_inhibition_mean, batch_name=ASAP-0000393-001
[15] = read-out: perc_inhibition_mean, batch_name=ASAP-0000394-001
[16] = read-out: perc_inhibition_mean, batch_name=ASAP-0000395-001
[17] = read-out: perc_inhibition_mean, batch_name=ASAP-0000396-001
[18] = read-out: perc_inhibition_mean, batch_name=ASAP-0000397-001
[19] = read-out: perc_inhibition_mean, batch_name=ASAP-0000398-001
[20] = read-out: perc_inhibition_mean, batch_name=ASAP-0000399-001
[21] = read-out: perc_inhibition_mean, batch_name=ASAP-0000400-001
[22] = read-out: perc_inhibition_mean, batch_name=ASAP-0000401-001
[23] = read-out: perc_inhibition_mean, batch_name=ASAP-0000402-001
[24] = read-out: perc_inhibition_mean, batch_name=ASAP-0000403-001
[25] = read-out: perc_inhibition_mean, batch_name=ASAP-0000404-001
[26] = read-out: perc_inhibition_mean, batch_name=ASAP-0000405-001
[27] = read-out: perc_inhibition_mean, batch_name=ASAP-0000406-001
[28] = read-out: perc_inhibition_mean, batch_name=ASAP-0000407-001
[29] = read-out: perc_inhibition_mean, batch_name=ASAP-0000408-001
[30] = read-out: perc_inhibition_mean, batch_name=ASAP-0000409-001
[31] = read-out: perc_inhibition_mean, batch_name=ASAP-0000410-001
[32] = read-out: perc_inhibition_mean, batch_name=ASAP-0000411-001
[33] = read-out: perc_inhibition_mean, batch_name=ASAP-0000412-001
[34] = read-out: perc_inhibition_mean, batch_name=ASAP-0000413-001
[35] = read-out: perc_inhibition_mean, batch_name=ASAP-0000414-001
[36] = read-out: perc_inhibition_mean, batch_name=ASAP-0000415-001

Structure (SMILES)	perc_inhibition_mean ([1]; concentration 49.75 uM)	perc_inhibition_mean ([1]; concentration 99.5 uM)	also measured
O=C(c1cncc(O)n1)N1CCC(c2ccn3ncc(C(=O)N4CCCCC4)c3c2)CC1 [ASAP-0000382]	26.617%	41.906%	inhibition at 49.75 µM [2, 3]: 26.6%; inhibition at 99.5 µM [2, 3]: 41.9%
O=C(c1c[nH]c(=O)cn1)N1CCC(c2ccn3ncc(C(=O)N4CCCCC4)c3c2)CC1 [ASAP-0000383]	-49.044%	45.826%	inhibition at 49.75 µM [2, 4]: -49%; inhibition at 99.5 µM [2, 4]: 45.8%
CC(C)[C@@H](Nc1ncnc2[nH]ccc12)c1nncn1C [ASAP-0000384]	4.589%	10.829%	inhibition at 49.75 µM [2, 5]: 4.59%; inhibition at 99.5 µM [2, 5]: 10.8%
O=C(c1cnc2[nH]ncc2c1)N1CCC(c2ccn3ncc(C(=O)N4CCCCC4)c3c2)CC1 [ASAP-0000385]	15.807%	34.368%	inhibition at 49.75 µM [2, 6]: 15.8%; inhibition at 99.5 µM [2, 6]: 34.4%
NC(=O)c1ncccc1C(=O)N1CCC(c2ccn3ncc(C(=O)N4CCCCC4)c3c2)CC1 [ASAP-0000386]	19.978%	36.045%	inhibition at 49.75 µM [2, 7]: 20%; inhibition at 99.5 µM [2, 7]: 36%
Cc1cc(C(=O)N2CCC(c3ccn4ncc(C(=O)N5CCCCC5)c4c3)CC2)[nH]n1 [ASAP-0000387]	16.559%	31.572%	inhibition at 49.75 µM [2, 8]: 16.6%; inhibition at 99.5 µM [2, 8]: 31.6%
Cc1cc(N)ncc1C(=O)N1CCC(c2ccn3ncc(C(=O)N4CCCCC4)c3c2)CC1 [ASAP-0000388]	19.535%	32.615%	inhibition at 49.75 µM [2, 9]: 19.5%; inhibition at 99.5 µM [2, 9]: 32.6%
O=C(c1cccnc1S)N1CCC(c2ccn3ncc(C(=O)N4CCCCC4)c3c2)CC1 [ASAP-0000389]	32.298%	52.653%	inhibition at 49.75 µM [2, 10]: 32.3%; inhibition at 99.5 µM [2, 10]: 52.7%
Cc1nc(C(=O)N2CCC(c3ccn4ncc(C(=O)N5CCCCC5)c4c3)CC2)c(C)[nH]1 [ASAP-0000390]	16.798%	27.519%	inhibition at 49.75 µM [2, 11]: 16.8%; inhibition at 99.5 µM [2, 11]: 27.5%
CN1CCO[C@@H](CNC(=O)c2cnn3ccc(C4CCN(C(=O)c5ccccc5)CC4)cc23)C1 [ASAP-0000391]	-12.021%	-11.503%	inhibition at 49.75 µM [2, 12]: -12%; inhibition at 99.5 µM [2, 12]: -11.5%
CN1CCC[C@H](NC(=O)c2cnn3ccc(C4CCN(C(=O)c5ccccc5)CC4)cc23)C1 [ASAP-0000392]	-6.989%	-5.439%	inhibition at 49.75 µM [2, 13]: -6.99%; inhibition at 99.5 µM [2, 13]: -5.44%
Cc1[nH]cnc1C(=O)N1CCC(c2ccn3ncc(C(=O)N4CCCCC4)c3c2)CC1 [ASAP-0000393]	16.419%	32.041%	inhibition at 49.75 µM [2, 14]: 16.4%; inhibition at 99.5 µM [2, 14]: 32%
O=C(CCN(Cc1cccc(Cl)c1)C(=O)[C@H]1CCOC1)N1CCNCC1 [ASAP-0000394]	4.078%	-3.965%	inhibition at 49.75 µM [2, 15]: 4.08%; inhibition at 99.5 µM [2, 15]: -3.96%
Cc1[nH]nc(C(=O)N2CCC(c3ccn4ncc(C(=O)N5CCCCC5)c4c3)CC2)c1C [ASAP-0000395]	18.038%	33.801%	inhibition at 49.75 µM [2, 16]: 18%; inhibition at 99.5 µM [2, 16]: 33.8%
O=C(c1ccccc1)N1CCC(c2ccn3ncc(C(=O)N4CCCC[C@H](O)C4)c3c2)CC1 [ASAP-0000396]	17.833%	29.785%	inhibition at 49.75 µM [2, 17]: 17.8%; inhibition at 99.5 µM [2, 17]: 29.8%
O=C(CCN(Cc1cccc(Cl)c1)C(=O)c1ncccc1Cl)N1CCNCC1 [ASAP-0000397]	2.753%	7.518%	inhibition at 49.75 µM [2, 18]: 2.75%; inhibition at 99.5 µM [2, 18]: 7.52%
C[C@@]1(C(N)=O)CCCN1C(=O)c1cnn2ccc(C3CCN(C(=O)c4ccccc4)CC3)cc12 [ASAP-0000398]	-8.039%	10.386%	inhibition at 49.75 µM [2, 19]: -8.04%; inhibition at 99.5 µM [2, 19]: 10.4%

Structure (SMILES)	perc_inhibition_mean ([1]; concentration 49.75 uM)	perc_inhibition_mean ([1]; concentration 99.5 uM)	also measured
O=C(N[C@@H]1COCC[C@H]1O)c1cnn2ccc(C3CCN(C(=O)c4ccccc4)CC3)cc12 [ASAP-0000399]	-5.013%	-4.477%	inhibition at 49.75 µM [2, 20]: -5.01%; inhibition at 99.5 µM [2, 20]: -4.48%
Cc1cc(CNC(=O)c2cnn3ccc(C4CCN(C(=O)c5ccccc5)CC4)cc23)n(C)n1 [ASAP-0000400]	-5.508%	-8.125%	inhibition at 49.75 µM [2, 21]: -5.51%; inhibition at 99.5 µM [2, 21]: -8.12%
O=C(CCN(Cc1cccc(Cl)c1)C(=O)C1CCC(O)CC1)N1CCNCC1 (stereo not shown) [ASAP-0000401]	-4.315%	0.465%	inhibition at 49.75 µM [2, 22]: -4.32%; inhibition at 99.5 µM [2, 22]: 0.465%
O=C(c1ccnc(S)c1)N1CCC(c2ccn3ncc(C(=O)N4CCCCC4)c3c2)CC1 [ASAP-0000402]	20.252%	35.496%	inhibition at 49.75 µM [2, 23]: 20.3%; inhibition at 99.5 µM [2, 23]: 35.5%
O=C1CCN(C(=O)c2cnn3ccc(C4CCN(C(=O)c5ccccc5)CC4)cc23)CCN1 [ASAP-0000403]	-2.402%	-7.808%	inhibition at 49.75 µM [2, 24]: -2.4%; inhibition at 99.5 µM [2, 24]: -7.81%
O=C(c1ccccc1)N1CCC(c2ccn3ncc(C(=O)N4CCn5ncnc5C4)c3c2)CC1 [ASAP-0000404]	-3.769%	-3.519%	inhibition at 49.75 µM [2, 25]: -3.77%; inhibition at 99.5 µM [2, 25]: -3.52%
O=C(c1ccncc1)N1CCC(c2ccn3ncc(C(=O)N4CCCCC4)c3c2)CC1 [ASAP-0000405]	10.851%	26.497%	inhibition at 49.75 µM [2, 26]: 10.9%; inhibition at 99.5 µM [2, 26]: 26.5%
CCN1CCN(C(=O)c2cnn3ccc(C4CCN(C(=O)c5ccccc5)CC4)cc23)CC1=O [ASAP-0000406]	-8.634%	-3.464%	inhibition at 49.75 µM [2, 27]: -8.63%; inhibition at 99.5 µM [2, 27]: -3.46%
C[C@@H](NC(=O)c1cnn2ccc(C3CCN(C(=O)c4ccccc4)CC3)cc12)c1cc[nH]n1 [ASAP-0000407]	-4.99%	-2.773%	inhibition at 49.75 µM [2, 28]: -4.99%; inhibition at 99.5 µM [2, 28]: -2.77%
O=C(CCN(Cc1cccc(Cl)c1)C(=O)[C@@H]1CC1(F)F)N1CCNCC1 [ASAP-0000408]	-2.073%	-3.764%	inhibition at 49.75 µM [2, 29]: -2.07%; inhibition at 99.5 µM [2, 29]: -3.76%
O=C(CCN(Cc1cccc(Cl)c1)C(=O)c1ccc(O)cc1)N1CCNCC1 [ASAP-0000409]	-0.343%	-1.632%	inhibition at 49.75 µM [2, 30]: -0.343%; inhibition at 99.5 µM [2, 30]: -1.63%
Cc1nsc(N(C)C(=O)c2cnn3ccc(C4CCN(C(=O)c5ccccc5)CC4)cc23)n1 [ASAP-0000410]	-10.512%	-11.519%	inhibition at 49.75 µM [2, 31]: -10.5%; inhibition at 99.5 µM [2, 31]: -11.5%
O=C(c1ccccc1)N1CCC(c2ccn3ncc(C(=O)N4CCc5cccnc54)c3c2)CC1 [ASAP-0000411]	-4.67%	-8.02%	inhibition at 49.75 µM [2, 32]: -4.67%; inhibition at 99.5 µM [2, 32]: -8.02%
CN(C[C@H]1CCCN1)C(=O)c1cnn2ccc(C3CCN(C(=O)c4ccccc4)CC3)cc12 [ASAP-0000412]	-7.471%	-6.586%	inhibition at 49.75 µM [2, 33]: -7.47%; inhibition at 99.5 µM [2, 33]: -6.59%
O=C1CC[C@@H](CNC(=O)c2cnn3ccc(C4CCN(C(=O)c5ccccc5)CC4)cc23)N1 [ASAP-0000413]	-2.317%	-1.468%	inhibition at 49.75 µM [2, 34]: -2.32%; inhibition at 99.5 µM [2, 34]: -1.47%
Cc1[nH]ncc1CN(C)C(=O)c1cnn2ccc(C3CCN(C(=O)c4ccccc4)CC3)cc12 [ASAP-0000414]	-1.138%	0.307%	inhibition at 49.75 µM [2, 35]: -1.14%; inhibition at 99.5 µM [2, 35]: 0.307%
O=C(c1cccnc1O)N1CCC(c2ccn3ncc(C(=O)N4CCCCC4)c3c2)CC1 [ASAP-0000415]	-7.036%	-3.94%	inhibition at 49.75 µM [2, 36]: -7.04%; inhibition at 99.5 µM [2, 36]: -3.94%
